Laboratory results from ChEMBL document CHEMBL1909046, “DrugMatrix in vitro pharmacology data”.

Tests used:
[1] = target: Beta-3 adrenergic receptor (Homo sapiens, UniProt P13945); experiment: DRUGMATRIX: Adrenergic beta3 radioligand binding (ligand: [125I] Cyanopindolol); type: cell membranes, HEK293, Membrane; conditions: hek293; Not Active = under 50% inhibition at 10 µM
[2] = DRUGMATRIX: ATPase, Na+/K+ enzyme inhibition (substrate: ATP); type: tissue-based, Sus scrofa, Heart; conditions: Not Active = under 50% inhibition at 10 µM
[3] = target: C-C chemokine receptor type 5 (Homo sapiens, UniProt P51681); type: cell membranes, Membrane; conditions: hek293; note: in other assays of this panel Not Active means under 50% inhibition at 10 µM
Sequence of C-C chemokine receptor type 5 (P51681 whole entry): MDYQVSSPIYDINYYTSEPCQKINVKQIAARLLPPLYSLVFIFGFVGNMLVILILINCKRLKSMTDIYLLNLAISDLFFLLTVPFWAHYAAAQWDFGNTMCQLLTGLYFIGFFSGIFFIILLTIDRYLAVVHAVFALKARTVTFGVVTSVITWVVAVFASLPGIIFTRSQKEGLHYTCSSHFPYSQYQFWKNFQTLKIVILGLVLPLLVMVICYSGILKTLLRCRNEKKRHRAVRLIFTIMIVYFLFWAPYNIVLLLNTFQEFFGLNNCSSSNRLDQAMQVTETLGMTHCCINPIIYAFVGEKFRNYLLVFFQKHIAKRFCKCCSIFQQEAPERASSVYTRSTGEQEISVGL

D(4) dopamine receptor = target: T1, D(4) dopamine receptor (Homo sapiens, UniProt P21917); experiment: DRUGMATRIX: Dopamine D4.2 radioligand binding (ligand: [3H] Spiperone); type: cell membranes, CHO-K1, Membrane; conditions: cho-k1; Not Active = under 50% inhibition at 10 µM
T1 sequence (P21917 whole entry): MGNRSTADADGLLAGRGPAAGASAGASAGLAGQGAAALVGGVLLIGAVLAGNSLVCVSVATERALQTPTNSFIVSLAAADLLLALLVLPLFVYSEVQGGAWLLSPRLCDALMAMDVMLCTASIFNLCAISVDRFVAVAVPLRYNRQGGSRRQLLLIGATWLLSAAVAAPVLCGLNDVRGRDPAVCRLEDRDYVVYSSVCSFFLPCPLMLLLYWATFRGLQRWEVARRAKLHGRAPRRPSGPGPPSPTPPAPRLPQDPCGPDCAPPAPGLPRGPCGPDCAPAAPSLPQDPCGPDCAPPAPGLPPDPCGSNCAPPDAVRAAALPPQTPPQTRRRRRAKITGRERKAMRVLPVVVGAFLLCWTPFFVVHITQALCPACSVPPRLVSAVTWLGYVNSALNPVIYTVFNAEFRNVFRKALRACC

[4] = DRUGMATRIX: Glutamate, AMPA radioligand binding (ligand: [3H] AMPA); type: cell membranes, Rattus norvegicus, Wistar, Cerebral cortex, Membrane; conditions: Not Active = under 50% inhibition at 10 µM
[5] = DRUGMATRIX: Imidazoline I2, Central radioligand binding (ligand: [3H] Idazoxan); type: cell membranes, Rattus norvegicus, Wistar, Cerebral cortex, Membrane; conditions: Not Active = under 50% inhibition at 10 µM
Insulin receptor = Insulin receptor (Rattus norvegicus, UniProt P15127); type: cell membranes, Wistar, Liver, Membrane; note: in other assays of this panel Not Active means under 50% inhibition at 10 µM
Sequence of Insulin receptor (P15127 27-759 limits assumed): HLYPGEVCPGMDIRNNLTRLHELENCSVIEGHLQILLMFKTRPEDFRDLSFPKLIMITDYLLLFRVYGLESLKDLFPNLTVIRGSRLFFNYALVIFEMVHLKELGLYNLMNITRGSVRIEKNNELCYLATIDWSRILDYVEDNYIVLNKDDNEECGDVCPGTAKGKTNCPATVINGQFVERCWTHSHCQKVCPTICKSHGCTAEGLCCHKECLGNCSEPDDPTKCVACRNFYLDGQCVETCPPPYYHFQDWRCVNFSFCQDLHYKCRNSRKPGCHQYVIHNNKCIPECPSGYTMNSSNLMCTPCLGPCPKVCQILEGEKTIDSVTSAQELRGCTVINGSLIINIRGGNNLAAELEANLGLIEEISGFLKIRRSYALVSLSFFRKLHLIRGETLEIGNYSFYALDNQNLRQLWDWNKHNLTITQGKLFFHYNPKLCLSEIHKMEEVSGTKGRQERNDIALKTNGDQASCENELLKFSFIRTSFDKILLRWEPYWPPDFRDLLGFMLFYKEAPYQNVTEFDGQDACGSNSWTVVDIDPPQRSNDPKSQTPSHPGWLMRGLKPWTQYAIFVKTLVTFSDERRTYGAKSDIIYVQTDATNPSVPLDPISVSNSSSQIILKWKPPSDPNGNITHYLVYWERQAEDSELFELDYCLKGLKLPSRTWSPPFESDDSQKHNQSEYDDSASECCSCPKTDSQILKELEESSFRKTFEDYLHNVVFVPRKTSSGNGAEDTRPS
Sequence of Insulin receptor (P15127 764-1383 limits assumed): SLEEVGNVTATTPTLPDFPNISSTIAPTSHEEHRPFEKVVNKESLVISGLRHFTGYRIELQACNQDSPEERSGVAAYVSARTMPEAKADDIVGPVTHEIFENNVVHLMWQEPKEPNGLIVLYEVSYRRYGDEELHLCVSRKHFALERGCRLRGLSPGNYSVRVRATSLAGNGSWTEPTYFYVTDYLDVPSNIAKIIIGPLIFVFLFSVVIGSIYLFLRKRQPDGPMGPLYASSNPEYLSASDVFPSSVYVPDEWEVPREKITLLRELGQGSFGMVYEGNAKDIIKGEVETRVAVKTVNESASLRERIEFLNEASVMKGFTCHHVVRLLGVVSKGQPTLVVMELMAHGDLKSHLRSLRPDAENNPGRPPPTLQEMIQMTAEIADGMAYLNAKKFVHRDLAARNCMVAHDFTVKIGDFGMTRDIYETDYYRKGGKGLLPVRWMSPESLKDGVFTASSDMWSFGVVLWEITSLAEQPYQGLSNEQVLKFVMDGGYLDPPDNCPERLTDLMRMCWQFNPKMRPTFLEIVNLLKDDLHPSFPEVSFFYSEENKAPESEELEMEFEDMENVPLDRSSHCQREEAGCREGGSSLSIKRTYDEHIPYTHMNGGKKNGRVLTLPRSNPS

[6] = target: T2, Angiotensin-converting enzyme (Oryctolagus cuniculus, UniProt P12822); experiment: biochemical; type: tissue-based, Lung;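 note: enzymatic inhibition of angiotensin-converting enzyme measured with FAPGG as the substrate; in other assays of this panel Not Active means under 50% inhibition at 10 µM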
T2 sequence (P12822 whole entry): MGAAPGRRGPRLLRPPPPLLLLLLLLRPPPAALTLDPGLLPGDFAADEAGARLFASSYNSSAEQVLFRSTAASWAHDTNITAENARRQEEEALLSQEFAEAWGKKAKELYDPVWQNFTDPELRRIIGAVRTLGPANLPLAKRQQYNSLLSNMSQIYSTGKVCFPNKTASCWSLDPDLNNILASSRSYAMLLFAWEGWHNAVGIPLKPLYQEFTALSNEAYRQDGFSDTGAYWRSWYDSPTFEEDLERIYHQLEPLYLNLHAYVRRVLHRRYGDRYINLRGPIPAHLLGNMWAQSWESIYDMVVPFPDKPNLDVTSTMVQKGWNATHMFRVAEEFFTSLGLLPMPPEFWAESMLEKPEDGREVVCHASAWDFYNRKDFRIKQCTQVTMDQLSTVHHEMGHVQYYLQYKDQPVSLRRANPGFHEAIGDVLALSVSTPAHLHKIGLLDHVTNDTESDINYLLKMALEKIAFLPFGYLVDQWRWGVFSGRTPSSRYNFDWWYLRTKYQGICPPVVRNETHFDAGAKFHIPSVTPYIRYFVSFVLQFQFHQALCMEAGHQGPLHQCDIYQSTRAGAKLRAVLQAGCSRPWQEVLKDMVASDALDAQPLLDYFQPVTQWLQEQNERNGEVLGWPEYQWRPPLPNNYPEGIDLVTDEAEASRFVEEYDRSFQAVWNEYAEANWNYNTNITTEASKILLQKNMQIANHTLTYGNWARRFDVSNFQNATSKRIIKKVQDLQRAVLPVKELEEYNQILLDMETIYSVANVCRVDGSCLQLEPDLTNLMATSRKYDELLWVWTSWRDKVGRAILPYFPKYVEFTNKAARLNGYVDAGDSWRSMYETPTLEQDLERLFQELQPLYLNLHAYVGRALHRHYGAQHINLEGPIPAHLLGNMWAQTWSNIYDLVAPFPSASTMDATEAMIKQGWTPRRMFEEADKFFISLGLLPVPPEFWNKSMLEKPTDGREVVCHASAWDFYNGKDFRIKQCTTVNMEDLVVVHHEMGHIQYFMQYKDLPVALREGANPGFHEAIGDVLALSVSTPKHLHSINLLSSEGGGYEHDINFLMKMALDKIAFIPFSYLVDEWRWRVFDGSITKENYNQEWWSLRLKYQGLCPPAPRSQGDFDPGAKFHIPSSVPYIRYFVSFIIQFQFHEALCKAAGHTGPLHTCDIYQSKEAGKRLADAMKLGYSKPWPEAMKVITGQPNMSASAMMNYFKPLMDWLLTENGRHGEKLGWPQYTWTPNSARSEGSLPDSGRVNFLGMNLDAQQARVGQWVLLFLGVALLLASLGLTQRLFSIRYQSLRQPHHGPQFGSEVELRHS

[7] = target: Epidermal growth factor receptor (Homo sapiens, UniProt P00533); experiment: DRUGMATRIX: Protein Tyrosine Kinase, EGF Receptor enzyme inhibition (substrate: Poly(Glu:Tyr)); type: cell-based, Insect cells; conditions: insect cells; Not Active = under 50% inhibition at 10 µM
Sequence of Epidermal growth factor receptor (P00533 whole entry): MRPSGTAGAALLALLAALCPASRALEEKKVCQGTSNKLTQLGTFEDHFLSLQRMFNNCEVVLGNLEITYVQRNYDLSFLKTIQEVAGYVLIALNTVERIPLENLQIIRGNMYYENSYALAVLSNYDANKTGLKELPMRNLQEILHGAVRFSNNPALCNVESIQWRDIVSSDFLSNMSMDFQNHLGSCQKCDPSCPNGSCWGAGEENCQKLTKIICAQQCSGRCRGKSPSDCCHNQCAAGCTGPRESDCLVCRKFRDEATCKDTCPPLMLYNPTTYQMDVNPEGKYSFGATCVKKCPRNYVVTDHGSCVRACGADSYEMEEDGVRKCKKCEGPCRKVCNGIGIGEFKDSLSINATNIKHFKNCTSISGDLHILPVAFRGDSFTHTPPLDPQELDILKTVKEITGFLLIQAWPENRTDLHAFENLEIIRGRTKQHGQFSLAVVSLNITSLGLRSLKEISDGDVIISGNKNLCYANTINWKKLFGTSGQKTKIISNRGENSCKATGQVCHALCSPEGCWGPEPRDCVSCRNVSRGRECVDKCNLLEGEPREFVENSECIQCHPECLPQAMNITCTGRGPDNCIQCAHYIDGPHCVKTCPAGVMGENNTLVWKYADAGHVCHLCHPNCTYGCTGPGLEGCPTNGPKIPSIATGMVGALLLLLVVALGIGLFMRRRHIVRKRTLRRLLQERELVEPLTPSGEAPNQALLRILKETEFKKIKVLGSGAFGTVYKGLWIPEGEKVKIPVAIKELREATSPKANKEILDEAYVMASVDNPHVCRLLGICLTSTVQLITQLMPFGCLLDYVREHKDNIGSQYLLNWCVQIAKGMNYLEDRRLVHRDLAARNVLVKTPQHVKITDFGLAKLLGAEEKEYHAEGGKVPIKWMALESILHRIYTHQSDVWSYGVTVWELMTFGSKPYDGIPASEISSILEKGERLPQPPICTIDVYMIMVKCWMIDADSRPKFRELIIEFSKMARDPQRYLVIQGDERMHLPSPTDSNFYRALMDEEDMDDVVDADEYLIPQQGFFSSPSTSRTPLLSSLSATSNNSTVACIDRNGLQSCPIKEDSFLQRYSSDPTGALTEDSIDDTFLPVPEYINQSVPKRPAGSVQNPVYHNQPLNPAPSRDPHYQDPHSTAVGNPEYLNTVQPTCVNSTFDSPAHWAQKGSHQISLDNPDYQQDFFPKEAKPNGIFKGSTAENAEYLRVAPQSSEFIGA

Cytochrome P450 2A6 = target: T3, Cytochrome P450 2A6 (Homo sapiens, UniProt P11509); conditions: bti-tn-5b1-4; note: in other assays of this panel Not Active means under 50% inhibition at 10 µM
T3 sequence (P11509 whole entry): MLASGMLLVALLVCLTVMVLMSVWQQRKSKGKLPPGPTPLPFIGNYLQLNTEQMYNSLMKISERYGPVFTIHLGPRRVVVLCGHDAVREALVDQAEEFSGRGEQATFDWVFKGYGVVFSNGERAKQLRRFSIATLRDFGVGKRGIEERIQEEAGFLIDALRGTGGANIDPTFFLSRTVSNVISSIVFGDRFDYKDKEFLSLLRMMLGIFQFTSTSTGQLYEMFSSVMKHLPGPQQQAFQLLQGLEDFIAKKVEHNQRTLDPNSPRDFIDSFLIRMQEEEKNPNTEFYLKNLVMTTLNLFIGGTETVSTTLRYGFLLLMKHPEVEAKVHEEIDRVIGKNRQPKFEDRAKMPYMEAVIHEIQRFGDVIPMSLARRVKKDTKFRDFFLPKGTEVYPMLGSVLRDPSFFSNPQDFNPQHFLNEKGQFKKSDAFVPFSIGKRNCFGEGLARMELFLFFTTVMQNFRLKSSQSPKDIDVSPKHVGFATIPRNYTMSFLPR

Sequence of Beta-3 adrenergic receptor (P13945 whole entry): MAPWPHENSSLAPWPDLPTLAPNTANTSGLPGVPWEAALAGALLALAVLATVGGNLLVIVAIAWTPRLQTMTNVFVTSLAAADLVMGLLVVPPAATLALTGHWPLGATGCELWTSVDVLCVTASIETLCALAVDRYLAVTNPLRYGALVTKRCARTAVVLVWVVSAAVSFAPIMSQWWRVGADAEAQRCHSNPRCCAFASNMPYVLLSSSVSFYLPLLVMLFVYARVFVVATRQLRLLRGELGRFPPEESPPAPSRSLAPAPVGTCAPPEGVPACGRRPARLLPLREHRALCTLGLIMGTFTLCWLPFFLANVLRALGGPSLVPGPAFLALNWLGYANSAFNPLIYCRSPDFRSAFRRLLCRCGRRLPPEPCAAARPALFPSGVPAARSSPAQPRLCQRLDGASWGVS

Compound	IC50 [1]	IC50 [2]	Ki [2]	IC50 [3]	IC50 (D(4) dopamine receptor)	IC50 [4]	Ki [4]	IC50 [5]	Ki [5]	IC50 (Insulin receptor)	IC50 ([6]; read-out: IC50) [nM]	IC50 [7]	IC50 (Cytochrome P450 2A6)	Ki (Cytochrome P450 2A6)	IC50 [6]
NCCCC[C@H](N[C@@H](CCc1ccccc1)C(=O)O)C(=O)N1CCC[C@H]1C(=O)O [LISINOPRIL ANHYDROUS]	Not Active	Not Active	Not Active	Not Active	Not Active	Not Active	Not Active	Not Active	Not Active	Not Active	6.04	Not Active	Not Active	Not Active	–
COS(C)(=O)=O [METHANESULFONIC ACID METHYL ESTER]	Not Active	Not Active	Not Active	Not Active	Not Active	Not Active	Not Active	Not Active	Not Active	Not Active	–	Not Active	Not Active	Not Active	Not Active
COC(=O)c1ccc(O)cc1 [METHYLPARABEN]	Not Active	Not Active	Not Active	Not Active	Not Active	Not Active	Not Active	Not Active	Not Active	Not Active	–	Not Active	Not Active	Not Active	Not Active
C[C@](N)(Cc1ccc(O)cc1)C(=O)O [METYROSINE]	Not Active	Not Active	Not Active	Not Active	Not Active	Not Active	Not Active	Not Active	Not Active	Not Active	–	Not Active	Not Active	Not Active	Not Active
Clc1ccc(C(c2ccccc2Cl)C(Cl)Cl)cc1 (stereo not drawn) [MITOTANE]	Not Active	Not Active	Not Active	Not Active	Not Active	Not Active	Not Active	Not Active	Not Active	Not Active	–	Not Active	Not Active	Not Active	Not Active
COc1c(C)c2c(c(O)c1C/C=C(\C)CCC(=O)OCCN1CCOCC1)C(=O)OC2 [MYCOPHENOLATE MOFETIL]	Not Active	Not Active	Not Active	Not Active	Not Active	Not Active	Not Active	Not Active	Not Active	Not Active	–	Not Active	Not Active	Not Active	Not Active
NNc1ccccc1 [PHENYLHYDRAZINE]	Not Active	Not Active	Not Active	Not Active	Not Active	Not Active	Not Active	Not Active	Not Active	Not Active	–	Not Active	Not Active	Not Active	Not Active
